# Patent US20260226128A1, “Capped Peptides and Methods for Using the Same” (The Board of Trustees of the Leland Stanford Junior …, priority 2023, published 2026)
# Tested on: diet induced obese mice
# Experiment: Food intake 2 hours post injection of CAP-GDF15 human homologue
# Format: in vivo, mouse
# Conditions: 50 mg/kg, single injection, versus vehicle
# Procedure: FIG. 12. Human CAP-GDF15 homologue inhibits food intake. Food intake of diet induced obese mice 2 hours post injection with vehicle or 50 mg/kg CAP-GDF15 human homologue (pGlu-[…]-NH2). (N=8 mice/group, error bars are SEM, and P values calculated with two-sided Student's T test.)
# Human CAP-GDF15 treatments in mice. Singly housed diet induced obese (on high fat diet, 4 months old, male, C57BL/6J, Jackson cat #380050) mice were injected with vehicle (18:1:1 Saline: DMSO: Kolliphor EL) or 50 mg/kg CAP-GDF15 human homologue (pGlu-[…]-NH2) once at ~5 μm. Food weight was measured before injection and 2 hours post to calculated food intake. (N=8 mice/group)
substance,measurement,value
pGlu-LELHLRPQAAR-NH2 (HELM PEPTIDE1{[Glp].L.E.L.H.L.R.P.Q.A.A.R.[am]}$$$$V2.0; SMILES CC(C)C[C@H](NC(=O)[C@@H]1CCC(=O)N1)C(=O)N[C@@H](CCC(=O)O)C(=O)N[C@@H](CC(C)C)C(=O)N[C@@H](Cc1c[nH]cn1)C(=O)N[C@@H](CC(C)C)C(=O)N[C@@H](CCCNC(=N)N)C(=O)N1CCC[C@H]1C(=O)N[C@@H](CCC(N)=O)C(=O)N[C@@H](C)C(=O)N[C@@H](C)C(=O)N[C@@H](CCCNC(=N)N)C(N)=O) [human homologue of CAP-GDF15],food intake 2 hours post injection,acutely inhibits food intake
